# Laboratory results from patent US10307388B2, “Compositions and methods for diagnosis and treatment of inflammation” (The United States of America as represented by the …, priority 2016, dated 2019).
# Entries after “also recorded” stand apart in the source; their conditions may differ.
# How the values were obtained:
# [1] = Total serum fatty acid concentrations in dolphins fed modified fish diet; settings: for Total serum fatty acid concentration: case dolphins fed modified diet (n = 20); for concentration at 0 month / concentration at 1 month / concentration at 3 month / concentration at 6 month: bottlenose dolphin (Tursiops truncatus)
# Protocol: This study examined the impact on inflammation by modifying fatty acid profiles through the diet in 20 MMP dolphins (“Group A dolphins”). The dolphins lived in netted enclosures within San Diego Bay. […] On blood collection days, Group A dolphins were fed one-third of their daily diet in the morning after their routine overnight fast and 2h postprandial, in-water, and trained blood samples were drawn (typically near 10:00 a.m.). An additional ten MMP dolphins (“Group B dolphins”) were maintained on the baseline capelin diet throughout the study period.
# Two hour post-prandial samples were collected from Group A and Group B dolphins at baseline (month 0) and at three time points following the switch to the modified diet: months 1, 3, and 6. Dolphins were assessed for changes in serum fatty acid concentrations (total and various forms) and indices of inflammation, including erythrocyte sedimentation rate and alkaline phosphatase.
# Blood was collected into BD Vacutainer serum separator tubes (for serum fatty acid profiles) or an evacuated tube containing EDTA (K3). Serum separator tubes were centrifuged at 3000 rpm for 10 minutes within 30 to 60 minutes of collection and chilled during processing until shipment. Serum was transferred to cryovials and stored at −80° C. until shipment on dry ice via overnight courier to the reference laboratories.
# Total serum fatty acid profiles were performed by the Genetics Laboratories at the Kennedy Krieger Institute. […] Each run was required to pass clinical laboratory quality control before the data were released. […] Percent fatty acids in serum was used as a sturdier index to help reduce potential variability in serum among study dolphins.
# Statistical analyses were conducted using World Programming System software (World Programming Ltd., Hampshire, United Kingdom). Significance was defined as a P value less than or equal to 0.05. Mean daily dietary intake of individual fatty acids were compared between pre-study and in-study diets for Group A and Group B dolphins using Wilcoxon rank sum tests. Indices of inflammation (erythrocyte sedimentation rate and alkaline phosphatase) and serum fatty acid concentrations (total and individual classes) from Month 1, 3, and 6 were compared with Month 0 for Group A and Group B dolphins using repeated measures ANOVA (MIXED model). […] Fatty acids that were independent predictors of erythrocyte sedimentation rate were then tested for linear associations with erythrocyte sedimentation rate using simple linear regressions. Fatty acids that were independent predictors of erythrocyte sedimentation rate and had inverse linear associations with these indices (defined as a P value less than or equal to 0.05 and an R^2 greater than or equal to 0.1), were characterized as fatty acids that independently predicted improved inflammation.
# [2] = system: erythrocyte sedimentation rate; test: Regression of serum fatty acid forms against erythrocyte sedimentation rate in dolphins on modified diet; type: in vivo, bottlenose dolphin (Tursiops truncatus); settings: for Serum hexosylceramide concentration resulting in erythrocyte sedimentation rates lower than 15 mm/hr (threshold effect): FIGS. 3A-3B
# [3] = Serum fatty acid form concentrations (complex lipidomics) in dolphins fed modified fish diet; type: in vivo; settings: bottlenose dolphin (Tursiops truncatus), case dolphins fed modified diet (n = 20), read-out: Serum concentration, FFA (free fatty acid) form; for concentration at 0 month: Month 0 (baseline); for concentration at 1 month: Month 1; for concentration at 3 month: Month 3; for concentration at 6 month: Month 6
# Protocol: Determination of serum fatty acid concentrations, including a variety of fatty acid classes, were performed by Metabolon, Inc. (Durham, N.C.) using complex lipidomics. […] The extracts were concentrated under nitrogen and reconstituted in 0.25 mL of dichloromethane:methanol (50:50) containing 10 mM ammonium acetate. The extracts were placed in vials for infusion-MS analyses, performed on a SelexION equipped Sciex 5500 QTRAP using both positive and negative mode electrospray. Each sample was subjected to 2 analyses, with IMS-MS conditions optimized for lipid classes monitored in each analysis. The 5500 QTRAP was operated in MRM mode to monitor the transitions for over 1,100 lipids from up to 14 lipid classes. Individual lipid species were quantified based on the ratio of signal intensity for target compounds to the signal intensity for an assigned internal standard of known concentration. Lipid class concentrations were calculated from the sum of all molecular species within a class, and fatty acid compositions were determined by calculating the proportion of individual fatty acids within each class.
# IL-6, IL-18, and MCP-1 = test: Serum adipokines (cytokines) in high fat diet induced obese mice after daily oral C15:0; type: in vivo, C57BL/6J mice; settings: obese HFD mice
# Protocol: (§1) This study examined the impact of daily oral administration of synthetic pentadecanoic acid (C15:0) on inflammation in an obese mouse model. Twenty C57BL/6J mice were fed a high fat diet (HFD) (D12492, 60% kcals fat) for 8 weeks. Study mice were then divided into the following two groups of ten: vehicle controls and C15:0-treated (5 mg/kg body weight). The predicted therapeutic dose of 5 mg/kg was based upon modified diet studies in the dolphin model.
# [4] = Tolerability, body weight and food intake in high fat diet obese mice given C15:0; type: in vivo
# Protocol: as §1
# Mice in the C15:0 treatment group tolerated the test article throughout the study. […] No changes were found in body weight, percent body weight change, or food intake when comparing the study groups (not shown).
# [5] = Month 0 (baseline), 2h postprandial
smiles,measurement,setting,value
"CCCCCCCCCCCCCCCCC(=O)O [C17:0, heptadecanoic acid]",Total serum fatty acid concentration,"[1]; Month 1, 2h postprandial",82 ± 21 µM
same,Serum phosphatidylcholine concentration resulting in erythrocyte sedimentation rates lower than 15 mm/hr (threshold effect),[2]; FIGS. 2A-2B,greater than 30 uM
CCCCCCCCCCCCCCCCCCCCCCCCCC(=O)O [C26:0],Total serum fatty acid concentration,[1]; [5],1.0 ± 0.1 µM
same,Total serum fatty acid concentration,"[1]; Month 1, 2h postprandial",0.8 ± 0.1 µM
same,Total serum fatty acid concentration,"[1]; Month 3, 2h postprandial",0.9 ± 0.1 µM
same,Total serum fatty acid concentration,"[1]; Month 6, 2h postprandial",0.9 ± 0.1 µM
"CCCCCCCCCCCCCCCCCCCC(=O)O [C20:0, arachidic acid]",concentration at 0 month,[1]; in vivo,94 ± 22 µM
same,concentration at 1 month,[1]; in vivo,87 ± 17 µM
same,concentration at 3 month,[1]; in vivo,98 ± 17 µM
same,concentration at 6 month,[1]; in vivo,96 ± 15 µM
same,concentration at 0 month,[3]; in vivo,6.6 ± 2.5 µM
same,concentration at 1 month,[3]; in vivo,4.4 ± 1.4 µM
same,concentration at 3 month,[3]; in vivo,5 ± 2.3 µM
same,concentration at 6 month,[3]; in vivo,17 ± 10 µM
same,Serum hexosylceramide concentration resulting in erythrocyte sedimentation rates lower than 15 mm/hr (threshold effect),[2],greater than 0.20 uM
"CCCCCCCCCCCCCCCC(=O)O [C16:0, palmitic acid]",Total serum fatty acid concentration,[1]; [5],1445 ± 194 µM
same,Total serum fatty acid concentration,"[1]; Month 1, 2h postprandial",1372 ± 199 µM
same,Total serum fatty acid concentration,"[1]; Month 3, 2h postprandial",1505 ± 221 µM
same,Total serum fatty acid concentration,"[1]; Month 6, 2h postprandial",1450 ± 155 µM
"CCCCCCCCCCCCCCCCCCCCCCCC(=O)O [C24:0, lignoceric acid]",concentration at 0 month,"[1]; serum, oral",18 ± 3 µM
same,concentration at 1 month,"[1]; serum, oral",17 ± 3 µM
same,concentration at 3 month,"[1]; serum, oral",18 ± 3 µM
same,concentration at 6 month,"[1]; serum, oral",18 ± 3 µM
"CCCCCCCCCCCCCCCCCCCCCC(=O)O [C22:0, behenic acid]",Total serum fatty acid concentration,[1]; [5],23 ± 4 µM
same,Total serum fatty acid concentration,"[1]; Month 1, 2h postprandial",21 ± 3 µM
same,Total serum fatty acid concentration,"[1]; Month 3, 2h postprandial",23 ± 3 µM
same,Total serum fatty acid concentration,"[1]; Month 6, 2h postprandial",24 ± 5 µM
same,Serum hexosylceramide concentration resulting in erythrocyte sedimentation rates lower than 15 mm/hr (threshold effect),[2],greater than 0.11 uM
"CCCCCCCCCCCCCCC(=O)O [C15:0, pentadecanoic acid]",Total serum fatty acid concentration,"[1]; Month 1, 2h postprandial",94 ± 33 µM
same,concentration at 0 month,"[3]; serum, oral",3.8 ± 1.3 µM
same,concentration at 1 month,"[3]; serum, oral",4.2 ± 1.5 µM
same,concentration at 3 month,"[3]; serum, oral",3.6 ± 0.8 µM
same,concentration at 6 month,"[3]; serum, oral",3.8 ± 1.3 µM
same,Serum cholesterol ester concentration resulting in erythrocyte sedimentation rates lower than 15 mm/hr (threshold effect),[2]; FIGS. 2A-2B,greater than 60 uM
same,Serum IL-6,"IL-6, IL-18, and MCP-1; 5 mg/kg daily gastric gavage, Day 84 (n = 10), vehicle control 60 ± 68",19 ± 11
same,Serum MCP-1,"IL-6, IL-18, and MCP-1; 5 mg/kg daily gastric gavage, Day 84 (n = 10), vehicle control 83 ± 31",52 ± 25
same,Serum IL-18,"IL-6, IL-18, and MCP-1; 5 mg/kg daily gastric gavage, Day 84 (n = 10), vehicle control 206 ± 84",101 ± 86
same,"Inflammation and adipokines (IL-6, IL-18, and MCP-1) compared to vehicle controls","IL-6, IL-18, and MCP-1; 5 mg/kg daily oral, 12 weeks, 5 mg/kg",lower; also recorded: reduced
same,Early mortalities in treated group,"[4]; mouse, in vivo, 5 mg/kg",no early mortalities
same,Tolerability of the test article,"[4]; mouse, in vivo, 5 mg/kg",tolerated
same,"Body weight, percent body weight change, or food intake vs control group","[4]; obese HFD mice, 5 mg/kg daily gastric gavage, 12 weeks",No changes
